The values that follow come from US8178534B2, “cMET inhibitors” (Takeda Pharmaceutical Company Limited, priority 2008, dated 2012).

One experiment deals with EBC1. The experiment can be described thus: Inhibition of cell viability (MTS), EBC1. The format is cell-based. As to conditions: Homo sapiens, 96 hours incubation. A digest of the protocol: (§1)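 Cells seeded at 2,000-7,500/well, attached ~24 h, then treated in duplicate with 1:2.5 serial dilutions at 0.5% final DMSO. Viability by MTS; EC50 from non-linear fit after background correction and normalisation to DMSO. MKN45 and EBC1 are cMET-dependent; A549 serves as negative control.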

Experiment [1] deals with T1, cMET enzyme (amino acids 1023-1360) (Homo sapiens, UniProt P08581).
T1 construct: The cMET enzyme (amino acids 1023-1360) nominally at 24 μM was held at −80° C. until use; His tag (N, cleaved yes); made in house; host or cells: Sf9 cells
The experiment can be described thus: Determination of inhibition of cMET (capillary electrophoresis, phosphorylated peptide product). The format is biochemical. The note with it: 1.2 nM cMET, 50 μM ATP, 2 μM FL-2 peptide, 2 hours room temperature.

A further experiment relates to A549. Kind of experiment: Inhibition of cell viability (MTS), A549 (negative control line). The format is cell-based. As to conditions: Homo sapiens, A549 cells (negative control), 96 hours incubation. A digest of the protocol:
as §1

The next experiment concerns MKN45. The experiment can be described thus: Inhibition of cell viability (MTS), MKN45. The format is cell-based. As to conditions: Homo sapiens, 96 hours incubation. A digest of the protocol:
as §1

A word on the EC50: it is the midpoint of the concentration-response curve. Low readings indicate an effect from little substance, high ones a need for much substance. As a reminder, the IC50 is the concentration at which inhibition is half-maximal.

Where a name gives a salt, the structure may show the parent alone.

T1 sequence (P08581 1023-1360): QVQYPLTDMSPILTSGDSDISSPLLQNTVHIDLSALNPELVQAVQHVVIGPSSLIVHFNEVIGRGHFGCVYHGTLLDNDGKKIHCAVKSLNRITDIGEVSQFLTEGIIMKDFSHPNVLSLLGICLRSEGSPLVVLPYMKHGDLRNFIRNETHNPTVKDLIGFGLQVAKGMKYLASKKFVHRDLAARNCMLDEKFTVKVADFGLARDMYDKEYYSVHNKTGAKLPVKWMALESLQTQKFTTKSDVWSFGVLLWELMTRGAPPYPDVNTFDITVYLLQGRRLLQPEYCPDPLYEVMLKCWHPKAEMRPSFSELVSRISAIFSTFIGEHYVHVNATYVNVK

Take `Cc1cc(F)cc(-c2ccc3nnc(C(F)(F)c4ccc5nc(NC(=O)C6CC6)cn5n4)n3c2)c1` [Compound 97, N-(6-(difluoro(6-(3-fluoro-5-methylphenyl)-[1,2,4]triazolo[4,3-a]pyridin-3-yl)methyl)imidazo[1,2-b]pyridazin-2-yl)cyclopropanecarboxamide]: the EC50 was less than 30 nM in the experiment with EBC1 (EBC-1, 96 h, EBC1 cells); more than 50000 nM in the experiment on A549 (A549, 96 h); less than 30 nM with MKN45 (MKN-45, 96 h, MKN45 cells). This compound displayed an IC50 in experiment [1] of less than 30 nM.

In the case of `CC(C)(O)c1ccc2nnc(Sc3ccc4nc(NC(=O)C5CC5)cn4n3)n2c1` [Compound 40, N-(6-(6-(2-hydroxypropan-2-yl)-[1,2,4]triazolo[4,3-a]pyridin-3-ylthio)imidazo[1,2-b]pyridazin-2-yl)cyclopropanecarboxamide], the EC50 with EBC1 (EBC-1, EBC1 cells) was more than 200 nM; in the experiment on A549, more than 50000 nM; in the experiment with MKN45 (MKN-45, MKN45 cells), more than 630 nM. The compound further returned an IC50 in experiment [1] of more than 100 nM.

For the compound `CS(=O)(=O)c1ccc(-c2ccc3nnn(Cc4ccc5nc(NC(=O)C6CC6)cn5n4)c3c2)cc1` [Compound 17], the EC50 in the experiment with EBC1 (EBC-1, 96 h, EBC1 cells) is less than 35 nM; in the experiment on A549 (A549, 96 h), more than 19500 nM; with MKN45 (MKN-45, 96 h, MKN45 cells), less than 100 nM. The compound also yielded an IC50 in experiment [1] of 60 to 100 nM.

`C[C@@H](c1ccc2nc(NC(=O)C3CC3)cn2n1)c1nnc2ccc(-c3cnn(C)c3)cn12` [Compound 50, (S)—N-(6-(1-(6-(1-methyl-1H-pyrazol-4-yl)-[1,2,4]triazolo[4,3-a]pyridin-3-yl)ethyl)imidazo[1,2-b]pyridazin-2-yl)cyclopropanecarboxamide]: the EC50 was less than 30 nM in the experiment on EBC1 (EBC-1, 96 h, EBC1 cells); more than 50000 nM in the experiment with A549 (A549, 96 h); 30 to 59 nM in the experiment on MKN45 (MKN-45, 96 h, MKN45 cells). In addition, the IC50 in experiment [1] is less than 30 nM.

On to `CC(C)c1ccc(-c2ccc3nnc(C(F)(F)c4ccc5nc(NC(=O)C6CC6)cn5n4)n3c2)cc1` [Compound 80, N-(6-(difluoro(6-(4-isopropylphenyl)-[1,2,4]triazolo[4,3-a]pyridin-3-yl)methyl)imidazo[1,2-b]pyridazin-2-yl)cyclopropanecarboxamide], for which the EC50 is 30 to 59 nM with EBC1 (EBC-1, 96 h, EBC1 cells); more than 50000 nM in the experiment with A549 (A549, 96 h); less than 30 nM in the experiment with MKN45 (MKN-45, 96 h, MKN45 cells). This compound had an IC50 in experiment [1] of 30 to 59 nM.

As to `CS(=O)(=O)c1cncc(-c2ccc3nnn(Cc4ccc5nc(NC(=O)C6CC6)cn5n4)c3c2)c1` [Compound 21], the EC50 in the experiment with EBC1 (EBC-1, 96 h, EBC1 cells) is more than 200 nM; with A549 (A549, 96 h) it was more than 50000 nM; with MKN45 (MKN-45, 96 h, MKN45 cells) it was more than 630 nM. Moreover, the 50% inhibitory concentration (IC50) in experiment [1] is more than 100 nM.

Turning to `Cc1csc(-c2ccc3nnc(C(F)(F)c4ccc5nc(NC(=O)C6CC6)cn5n4)n3c2)c1` [Compound 84, N-(6-(difluoro(6-(4-methylthiophen-2-yl)-[1,2,4]triazolo[4,3-a]pyridin-3-yl)methyl)imidazo[1,2-b]pyridazin-2-yl)cyclopropanecarboxamide], the concentration for a half-maximal effect (EC50) in the experiment with EBC1 (EBC-1, 96 h, EBC1 cells) is less than 30 nM; with A549 (A549, 96 h), more than 50000 nM; in the experiment with MKN45 (MKN-45, 96 h, MKN45 cells), less than 30 nM. Besides, the IC50 in experiment [1] is less than 30 nM.

As to `Cn1cc(-c2ccc3nnc(C(F)(F)c4ccc5nc(NC(=O)C6CC6)cn5n4)n3c2)cn1` [45 (HCl Salt), N-(6-(Difluoro(6-(1-methyl-1H-pyrazol-4-yl)-[1,2,4]triazolo[4,3-a]pyridin-3-yl)methyl)imidazo[1,2-b]pyridazin-2-yl)cyclopropanecarboxamide hydrochloride], the EC50 with EBC1 (EBC-1, 96 h, EBC1 cells) is less than 30 nM; with A549 (A549, 96 h), more than 50000 nM; in the experiment with MKN45 (MKN-45, 96 h, MKN45 cells) it was less than 30 nM. The IC50 in experiment [1] is less than 30 nM.

As for `Cn1cc(-c2ccc3nnc(Sc4ccc5nc(NC(=O)C6CC6)cn5n4)n3c2)cn1` [Compound 5, N-(6-(6-(1-methyl-1H-pyrazol-4-yl)-[1,2,4]triazolo[4,3-a]pyridin-3-ylthio)-imidazo[1,2-b]pyridazin-2-yl)cyclopropanecarboxamide], the EC50 in the experiment on EBC1 (EBC-1, 96 h, EBC1 cells) was less than 35 nM; with A549 (A549, 96 h), more than 50000 nM; in the experiment with MKN45 (MKN-45, 96 h, MKN45 cells), less than 100 nM. In experiment [1], this compound yielded an IC50 of less than 30 nM.

On to `CNC(=O)c1ccc(-c2ccc3nnc(C(C)c4ccc5nc(NC(=O)C6CC6)cn5n4)n3c2)cc1F` (centres unmarked) [Compound 58, 4-(3-(1-(2-(cyclopropanecarboxamido)imidazo[1,2-b]pyridazin-6-yl)ethyl)-[1,2,4]triazolo[4,3-a]pyridin-6-yl)-2-fluoro-N-methylbenzamide], for which the EC50 was less than 30 nM in the experiment with EBC1 (EBC-1, 96 h, EBC1 cells); more than 50000 nM in the experiment with A549 (A549, 96 h); less than 30 nM in the experiment with MKN45 (MKN-45, 96 h, MKN45 cells). Moreover, the IC50 in experiment [1] was less than 30 nM.

Regarding `COc1cncc(-c2ccc3nnn(Cc4ccc5nc(NC(=O)C6CC6)cn5n4)c3c2)c1` [Compound 19], the EC50 with EBC1 (EBC-1, 96 h, EBC1 cells) is 100 to 199 nM; with A549 (A549, 96 h), more than 19500 nM; in the experiment with MKN45 (MKN-45, 96 h, MKN45 cells), 250 to 630 nM. In addition, in experiment [1], the IC50 fell in the range of 60 to 100 nM.

With `CC(c1ccc2nc(NC(=O)C3CC3)cn2n1)c1nnc2ccc(-c3cccc(C(N)=O)c3)cn12` (centres unmarked) [Compound 66, 3-(3-(1-(2-(cyclopropanecarboxamido)imidazo[1,2-b]pyridazin-6-yl)ethyl)-[1,2,4]triazolo[4,3-a]pyridin-6-yl)benzamide], the EC50 was 100 to 249 nM in the experiment with EBC1 (EBC-1, 96 h, EBC1 cells); more than 50000 nM with A549 (A549, 96 h); 100 to 249 nM with MKN45 (MKN-45, 96 h, MKN45 cells). In experiment [1], this compound returned an IC50 of less than 30 nM.

As to `CC(c1ccc2nc(NC(=O)C3CC3)cn2n1)c1nnc2ccc(-c3ccc(F)cc3)cn12` (centres unmarked) [Compound 55, N-(6-(1-(6-(4-fluorophenyl)-[1,2,4]triazolo[4,3-a]pyridin-3-yl)ethyl)imidazo[1,2-b]pyridazin-2-yl)cyclopropanecarboxamide], the EC50 is less than 30 nM in the experiment on EBC1 (EBC-1, 96 h, EBC1 cells); more than 50000 nM in the experiment on A549 (A549, 96 h); less than 30 nM with MKN45 (MKN-45, 96 h, MKN45 cells). Further, the IC50 in experiment [1] is less than 30 nM.

`COCCOCn1cc(-c2ccc3nnc(Sc4ccc5nc(NC(=O)C6CC6)cn5n4)n3c2)cn1` [Compound 29, N-(6-(6-(1-((2-methoxyethoxy)methyl)-1H-pyrazol-4-yl)-[1,2,4]triazolo[4,3-a]pyridin-3-ylthio)imidazo[1,2-b]pyridazin-2-yl)cyclopropanecarboxamide]: the EC50 with EBC1 (EBC-1, EBC1 cells) is 35 to 99 nM; with A549 it was more than 50000 nM; in the experiment on MKN45 (MKN-45, MKN45 cells), less than 100 nM. The compound also yielded a half-inhibitory concentration (IC50) in experiment [1] of 60 to 100 nM.

For `Cc1csc(-c2ccc3nnc(C(C)c4ccc5nc(NC(=O)C6CC6)cn5n4)n3c2)c1` (centres unmarked) [Compound 62, N-(6-(1-(6-(4-methylthiophen-2-yl)-[1,2,4]triazolo[4,3-a]pyridin-3-yl)ethyl)imidazo[1,2-b]pyridazin-2-yl)cyclopropanecarboxamide], the EC50 with EBC1 (EBC-1, 96 h, EBC1 cells) was less than 30 nM; with A549 (A549, 96 h) it was 5000 to 8000 nM; in the experiment with MKN45 (MKN-45, 96 h, MKN45 cells), less than 30 nM. This compound also yielded an IC50 in experiment [1] of less than 30 nM.

With `COc1cccc(-c2ccc3nnc(C(C)c4ccc5nc(NC(=O)C6CC6)cn5n4)n3c2)c1` (centres unmarked) [Compound 61, N-(6-(1-(6-(3-methoxyphenyl)-[1,2,4]triazolo[4,3-a]pyridin-3-yl)ethyl)imidazo[1,2-b]pyridazin-2-yl)cyclopropanecarboxamide], the EC50 is less than 30 nM with EBC1 (EBC-1, 96 h, EBC1 cells); more than 50000 nM in the experiment on A549 (A549, 96 h); less than 30 nM with MKN45 (MKN-45, 96 h, MKN45 cells). Further, in experiment [1], the IC50 is less than 30 nM.

Turning to `COc1cccc(-c2ccc3nnc(Sc4ccc5nc(NC(=O)C6CC6)cn5n4)n3c2)n1` [Compound 101, N-(6-(6-(6-methoxypyridin-2-yl)-[1,2,4]triazolo[4,3-a]pyridin-3-ylthio)imidazo[1,2-b]pyridazin-2-yl)cyclopropanecarboxamide], the EC50 in the experiment with EBC1 (EBC-1, 96 h, EBC1 cells) was 30 to 59 nM; with A549 (A549, 96 h), more than 50000 nM; with MKN45 (MKN-45, 96 h, MKN45 cells), 100 to 249 nM. Further, in experiment [1], the IC50 was less than 30 nM.
